Test results published in ChEMBL document CHEMBL1201862, “PubChem BioAssay data set” (2004).
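Five concentrations, 48 hours, 96-well plates. Abbreviation: GI50, concentration required for 50% inhibition of growth.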 Active and inactive are the calls of the source. No stated cut-off is given here; in the data, active = GI50 up to about 1.1 µM and inactive = higher.

Assays:
Test in all cases: NCI tumour cell line growth inhibition, 48 h
RPMI-8226 = tested on: RPMI-8226
ACHN = tested on: ACHN
IGROV-1 = tested on: IGROV-1
SN12C = tested on: SN12C
UO-31 = tested on: UO-31
EKVX = tested on: EKVX
SNB-19 = tested on: SNB-19
HT-29 = tested on: HT-29
NCI-H522 = tested on: NCI-H522
OVCAR-5 = tested on: OVCAR-5
M14 = tested on: M14
SF-295 = tested on: SF-295
OVCAR-4 = tested on: OVCAR-4
COLO 205 = tested on: COLO 205
HCT-116 = tested on: HCT-116
SNB-75 = tested on: SNB-75
NCI-H226 = tested on: NCI-H226
UACC-257 = tested on: UACC-257
Hs-578T = tested on: Hs-578T
RXF 393 = tested on: RXF 393
HOP-92 = tested on: HOP-92
Malme-3M = tested on: Malme-3M
NCI-H23 = tested on: NCI-H23
UACC-62 = tested on: UACC-62
A549 = tested on: A549
U-251 = tested on: U-251
BT-549 = tested on: BT-549
MOLT-4 = tested on: MOLT-4
NCI-H460 = tested on: NCI-H460
MCF7 = tested on: MCF7
TK-10 = tested on: TK-10
HCC 2998 = tested on: HCC 2998
CCRF-CEM = tested on: CCRF-CEM
SF-268 = tested on: SF-268
MDA-MB-435 = tested on: MDA-MB-435
SW-620 = tested on: SW-620
SR = tested on: SR
CAKI-1 = tested on: CAKI-1
DU-145 = tested on: DU-145
SK-MEL-5 = tested on: SK-MEL-5
K562 = tested on: K562
SK-MEL-28 = tested on: SK-MEL-28
PC-3 = tested on: PC-3
MDA-N = tested on: MDA-N
T47D = tested on: T47D
LOX IMVI = tested on: LOX IMVI
OVCAR-8 = tested on: OVCAR-8
KM12 = tested on: KM12
SK-MEL-2 = tested on: SK-MEL-2
OVCAR-3 = tested on: OVCAR-3
SK-OV-3 = tested on: SK-OV-3
SF-539 = tested on: SF-539
NCI/ADR-RES = tested on: NCI/ADR-RES
786-0 = tested on: 786-0
HOP-62 = tested on: HOP-62
MDA-MB-231 = tested on: MDA-MB-231
A498 = tested on: A498
HCT-15 = tested on: HCT-15

NCCCCNOCCCN
GI50 (RPMI-8226): > 100 µM (inactive)
GI50 (ACHN): > 100 µM (inactive)
GI50 (IGROV-1): > 100 µM (inactive)
GI50 (SN12C): > 100 µM (inactive)
GI50 (UO-31): > 100 µM (inactive)
GI50 (EKVX): > 100 µM (inactive)
GI50 (SNB-19): > 100 µM (inactive)
GI50 (HT-29): > 100 µM (inactive)
GI50 (NCI-H522): 61.5 µM (inactive)
GI50 (OVCAR-5): 42.8 µM (inactive)
GI50 (M14): > 100 µM (inactive)
GI50 (SF-295): > 100 µM (inactive)
GI50 (OVCAR-4): > 100 µM (inactive)
GI50 (COLO 205): > 100 µM (inactive)
GI50 (HCT-116): > 100 µM (inactive)
GI50 (SNB-75): > 100 µM (inactive)
GI50 (NCI-H226): > 100 µM (inactive)
GI50 (UACC-257): > 100 µM (inactive)
GI50 (Hs-578T): > 100 µM (inactive)
GI50 (RXF 393): > 100 µM (inactive)
GI50 (HOP-92): > 100 µM (inactive)
GI50 (Malme-3M): > 100 µM (inactive)
GI50 (NCI-H23): > 100 µM (inactive)
GI50 (UACC-62): > 100 µM (inactive)
GI50 (A549): > 100 µM (inactive)
GI50 (U-251): > 100 µM (inactive)
GI50 (BT-549): > 100 µM (inactive)
GI50 (MOLT-4): > 100 µM (inactive)
GI50 (NCI-H460): > 100 µM (inactive)
GI50 (MCF7): > 100 µM (inactive)
GI50 (TK-10): > 100 µM (inactive)
GI50 (HCC 2998): > 100 µM (inactive)
GI50 (CCRF-CEM): > 100 µM (inactive)
GI50 (SF-268): > 100 µM (inactive)
GI50 (MDA-MB-435): > 100 µM (inactive)
GI50 (SW-620): > 100 µM (inactive)
GI50 (SR): > 100 µM (inactive)
GI50 (CAKI-1): > 100 µM (inactive)
GI50 (DU-145): > 100 µM (inactive)
GI50 (SK-MEL-5): > 100 µM (inactive)
GI50 (K562): > 100 µM (inactive)
GI50 (SK-MEL-28): > 100 µM (inactive)
GI50 (PC-3): > 100 µM (inactive)
GI50 (MDA-N): > 100 µM (inactive)
GI50 (T47D): > 100 µM (inactive)
GI50 (LOX IMVI): > 100 µM (inactive)
GI50 (OVCAR-8): > 100 µM (inactive)
GI50 (KM12): > 100 µM (inactive)
GI50 (SK-MEL-2): > 100 µM (inactive)
GI50 (OVCAR-3): > 100 µM (inactive)
GI50 (SK-OV-3): > 100 µM (inactive)
GI50 (SF-539): > 100 µM (inactive)
GI50 (NCI/ADR-RES): > 100 µM (inactive)

O=C(Nc1ccc2oc(=O)c(C(=O)O)cc2c1)Oc1ccccc1
GI50 (RPMI-8226): > 100 µM (inactive)
GI50 (786-0): > 100 µM (inactive)
GI50 (ACHN): > 100 µM (inactive)
GI50 (IGROV-1): > 100 µM (inactive)
GI50 (SN12C): > 100 µM (inactive)
GI50 (UO-31): > 100 µM (inactive)
GI50 (EKVX): > 100 µM (inactive)
GI50 (SNB-19): > 100 µM (inactive)
GI50 (HT-29): > 100 µM (inactive)
GI50 (NCI-H522): > 100 µM (inactive)
GI50 (OVCAR-5): > 100 µM (inactive)
GI50 (M14): > 100 µM (inactive)
GI50 (SF-295): > 100 µM (inactive)
GI50 (OVCAR-4): > 100 µM (inactive)
GI50 (COLO 205): > 100 µM (inactive)
GI50 (HCT-116): > 100 µM (inactive)
GI50 (SNB-75): > 100 µM (inactive)
GI50 (HOP-62): > 100 µM (inactive)
GI50 (NCI-H226): > 100 µM (inactive)
GI50 (UACC-257): > 100 µM (inactive)
GI50 (Hs-578T): > 100 µM (inactive)
GI50 (RXF 393): > 100 µM (inactive)
GI50 (HOP-92): > 100 µM (inactive)
GI50 (Malme-3M): > 100 µM (inactive)
GI50 (NCI-H23): > 100 µM (inactive)
GI50 (MDA-MB-231): > 100 µM (inactive)
GI50 (UACC-62): > 100 µM (inactive)
GI50 (A549): > 100 µM (inactive)
GI50 (U-251): > 100 µM (inactive)
GI50 (BT-549): > 100 µM (inactive)
GI50 (MOLT-4): > 100 µM (inactive)
GI50 (NCI-H460): > 100 µM (inactive)
GI50 (MCF7): > 100 µM (inactive)
GI50 (TK-10): > 100 µM (inactive)
GI50 (HCC 2998): 59.6 µM (inactive)
GI50 (A498): > 100 µM (inactive)
GI50 (SF-268): > 100 µM (inactive)
GI50 (MDA-MB-435): > 100 µM (inactive)
GI50 (SW-620): > 100 µM (inactive)
GI50 (HCT-15): > 100 µM
GI50 (SR): > 100 µM (inactive)
GI50 (CAKI-1): > 100 µM (inactive)
GI50 (DU-145): > 100 µM (inactive)
GI50 (SK-MEL-5): > 100 µM (inactive)
GI50 (K562): > 100 µM (inactive)
GI50 (SK-MEL-28): > 100 µM (inactive)
GI50 (PC-3): > 100 µM (inactive)
GI50 (T47D): > 100 µM (inactive)
GI50 (LOX IMVI): > 100 µM (inactive)
GI50 (OVCAR-8): > 100 µM (inactive)
GI50 (KM12): > 100 µM (inactive)
GI50 (SK-MEL-2): > 100 µM (inactive)
GI50 (OVCAR-3): > 100 µM (inactive)
GI50 (SK-OV-3): > 100 µM (inactive)
GI50 (SF-539): > 100 µM (inactive)
GI50 (NCI/ADR-RES): > 100 µM (inactive)
